Laboratory results taken from patent US20030138374A1, “Image diagnosis probe based on substituted azobenzene or analogue thereof for disease attributable to amyloid accumulation and composition for image diagnosis containing the same” (priority 2000, published 2003).
Read-outs that look alike come from different tables or passages of the source.

Tests used:
amyloid β protein = biological target: T1, amyloid β protein (Homo sapiens, UniProt P05067); assay: β structure recognition of amyloid β protein (thioflavin T fluorescence); assay type: binding; settings: for β structure recognition (%) at 1 µM: read-out: β Structure recognition (%); for β structure recognition (in words): comment on Table I
T1 construct: the amyloid β protein (purchased from Peptide Laboratory) was dissolved in a potassium phosphate buffer (pH7.4); purchased Peptide Laboratory
Experimental: (1) Method of Quantifying the Amyloid β Protein Having β Sheet Structure—method of Measuring of Recognition of β Structure in a Test Compound
Then, each 100 microliters of thioflavin T (which emits fluorescence depending on an extent of β structure of the amyloid β protein) dissolved in a glycine-NaOH buffer (pH 8.5) was added (final concentration 3 μM), and the fluorescence was immediately measured with a fluorescent microplate reader (manufactured by Molecular Device, Model fmax) at an excitation wavelength of 442 nm and a measurement wavelength of 485 nm. When the fluorescence of thioflavin alone was regarded as A, the fluorescence under the coexistence of the amyloid β protein and thioflavin T was regarded as B, and the fluorescence under the coexistence of the amyloid β protein, thioflavin T and a test compound was regarded as C, the recognition of β structure for the test compound was calculated by the following formula (unless otherwise indicated, the concentration of a test compound was 1 μM):
β structure recognition for test compound (%)={(B−C)/(B−A)}×100

insulin = biological target: T2, insulin (Homo sapiens, UniProt P01308); assay: Insulin β structure recognition (thioflavin T fluorescence); assay type: binding; settings: insulin 0.1 mg/ml with β structure; average of two measurements; read-out: Insulin β sheet structure recognition EC50
T2 construct: insulin (purchased from Sigma) was dissolved in deionized water; purchased Sigma
Source text: (2)Method of Measuring Insulin β Structure Recognition
It is known that proteins having β sheet structure such as insulin, amylin, etc are present in the human body in addition to the amyloid β protein (Burket et al., Biochemistry, vol. 11, p. 2435-2439, 1972; Ashburn et al, Chemistry and Biology, vol. 3, p. 351-358, 1996). It is desirable that a probe for diagnosing diseases in which amyloid is accumulated, including Alzheimer's disease by recognizing the amyloid protein, has the higher affinity with the amyloid β protein and has the lower affinity with other proteins having β sheet structure. Then, the affinity of each compound to insulin having β structure was measured.
A method of quantifying β sheet structure of insulin in vitro was slightly modified to be used in the test of the present invention, with reference to the report by Klunk et al. (Journal of Histochemistry and Cytochemistry, vol.37, p.1237-1281, 1989). That is, insulin (purchased from Sigma) was dissolved in deionized water, adjusted to pH2 with hydrochloric acid, heated at 92° C. for 10 minutes, and cooled in a dry ice/ethanol cooling bath. Thereafter, heating at 92° C. for 3 minutes and cooling in a dry ice/ethanol cooling bath were repeated 7 or 8 times. This insulin solution was further diluted to 0.1 mg/ml with a phosphate buffer (pH 7.4) , and dispensed in a 96-well microplate at each volume of 50 microliters. A test compound dissolved in deionized water was dispensed at a volume of 50 microliters, and thiofravin T (emitting fluorescence depending on an extent of β structure) dissolved in a glycine-NaOH buffer (pH 8.5) was dispensed at each volume of 100 microliters, and then the fluorescent extent was measured with a fluorescent microplate reader (manufactured by Molecular Device, Model fmax) at an excitation wavelength of 442 nm and a measurement wavelength of 485 nm. When the fluorescence of thioflavin T alone was regarded as D, the fluorescence under the coexistence of insulin and thioflavin T was regarded as E, and the fluorescence under the coexistence of insulin, thioflavin T and a test compound was regarded as F, the insulin β structure recognition for the test compound was calculated by the following formula:
Insulin β structure recognition for test compound (%) ={(E−F)/(E−D)}×100
based on this value, by using the BSAS (Biological Statistical Analysis System) statistic program the 50% effective concentration (EC50) for recognizing an insulin β sheet structure for the test compound was obtained.

[1] = Distribution coefficient between water/1-octanol; assay type: physicochemical; settings: 1-octanol / aqueous phase, pH 5
[2] = Distribution coefficient between water/1-octanol; assay type: physicochemical
Experimental: As an oily phase, 1-octanol was used and, as an aqueous phase, a phosphate buffer (pH 7.3) or ultra-pure water was used. A suitable amount of a test compound was dissolved in an oily phase or an aqueous phase, and both phases were placed in the same test tube, and shaken vigorously at room temperature for 30 minutes. After allowing to stand at room temperature over 1 hour, centrifugation at 2000 rpm for 10 minutes was carried out, followed by further standing at room temperature for 1 hour. The aqueous phase and the oily phase were sampled, respectively, and transferred to a 96-well microplate. By using a microplate reader (manufactured by Molecular Device, Model Spectramax 250), the absorbance was measured at a maximum absorbing wavelength for each test compound, and the concentration of the test compound was calculated from a calibration curve previously obtained. A distribution coefficient was calculated by the following formula. Distribution coefficient for test compound =(concentration of test compound in oily phase)/(concentration of test compound in aqueous phase) As the distribution coefficient becomes larger, it can be said that the blood-brain barrier permeability for the test compound is higher.

[3] = test compound 1 μM, thioflavin T 3 μM, average of duplicated experiments

T2 sequence (P01308 25-54 limits assumed, species assumed): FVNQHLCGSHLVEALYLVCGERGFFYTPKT
T2 sequence (P01308 90-110 limits assumed, species assumed): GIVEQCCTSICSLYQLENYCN
T1 sequence (P05067 672-711 limits assumed): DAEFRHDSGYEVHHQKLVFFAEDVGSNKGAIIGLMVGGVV

Row | Compound | β structure recognition (%) at 1 µM (amyloid β protein; [3]) | EC50 (insulin) | Distribution coefficient [1] | β structure recognition (in words) (amyloid β protein) | Distribution coefficient ([2]; 1-octanol / phosphate buffer (pH 7.3) or ultra-pure water) | Distribution coefficient (in words) ([2]; comment on Table I) | β Structure recognition (%) (amyloid β protein; [3]) | β structure recognition (%) at 1 µM (amyloid β protein)
1 | O=C(O)c1cc(/N=N/c2ccc(-c3ccc(/N=N/c4ccc(O)c(C(=O)O)c4)cc3)cc2)ccc1O [Chrysamine G, reference compound] | 66.8% | 253 nM | 9.7 (pH 5) | – | – | – | – | –
2 | Nc1c(/N=N/c2ccc(-c3ccc(/N=N/c4cc(S(=O)(=O)O)c5ccccc5c4N)cc3)cc2)cc(S(=O)(=O)O)c2ccccc12 [Congo red, reference compound] | 89.3% | 153 nM | – | – | – | – | – | –
3 | CN(C)c1ccc(/N=N/c2ccc(N=C=S)cc2)cc1 [SA-239, 4-((4-isothiocyanatphenyl)azo)-N,N-dimethylaniline] | – | 120 nM | – | highly recognize β structure | – | – | – | 83.3%
4 | CN(C)c1ccc(/N=C2\C=CC(=O)c3ccccc32)cc1 [SA-244, Indophenol Blue] | 96.9% | 449 nM | – | highly recognize β structure | – | – | – | –

Continued by falling EC50 (insulin), values first:

Row | β structure recognition (%) at 1 µM (amyloid β protein; [3]) | EC50 (insulin) | Distribution coefficient [1] | β structure recognition (in words) (amyloid β protein) | Distribution coefficient ([2]; 1-octanol / phosphate buffer (pH 7.3) or ultra-pure water) | Distribution coefficient (in words) ([2]; comment on Table I) | β Structure recognition (%) (amyloid β protein; [3]) | Compound | β structure recognition (%) at 1 µM (amyloid β protein)
5 | – | 129 nM | – | highly recognize β structure | – | – | 93.6% | CCN(CC)c1ccc(/N=C/c2ccc(N(CC)CC)cc2O)cc1 [Compound N-058, 5-(diethylamino)-2-({[4-(diethylamino)phenyl]imino}methyl)phenol] | –
6 | 97.7% | 113 nM | – | highly recognize β structure | 35 | high distribution coefficients | – | CN(C)c1ccc(/C=C/c2cccc(/C=C/c3ccc(N(C)C)cc3)[n+]2C)cc1.[I-] [Compound N-039, N-[4-(2-{6-[4-(dimethylamino)styryl]-1-methylpiridinium-2-yl}vinyl)phenyl]-N-methylmethanamine] | –
7 | 87.2% | 38 nM | – | highly recognize β structure | – | – | – | CCN(CC)c1ccc(/N=N/c2ccc(Br)cn2)c(O)c1 [SA-147] | –
